In patent US20260138981A1, “DIHYDROFOLATE REDUCTASE INHIBITORS FOR ANTI-BIOTIC RESISTANT INFECTIONS” (THE TRUSTEES OF PRINCETON UNIVERSITY, priority 2022, published 2026):

How the values were obtained:
[1] = tested on: P. aeruginosa PA14 nfxB T39P mutants; test: Cross resistance of fluorofolin-resistant mutant; type: cell-based; settings: 2×MIC
Description: NfxB is a transcriptional regulator protein that represses expression of the MexCD-OprN efflux pump.

[2] = tested on: PA14 mutants with disruptions in mexA, mexB and oprM; test: MIC against MexAB-OprM transposon mutants; type: cell-based, P. aeruginosa; settings: oprM transposon mutants vs wildtype PA14
Protocol: FIG. 1I is the minimum inhibitory concentration of fluorofolin or trimethoprim against transposon mutants for each component of the MexAB-OprM efflux pump. MIC against wildtype PA14 was calculated to control for each drug stock. MIC values are representative of two independent replicates.
P. aeruginosa PA14 transposon mutants were generated by the Ausubel Lab (http://ausubellab.mgh.harvard.edu/cgi-bin/pa14/home.cgi). The MICs of fluorofolin and TMP against strains with disrupted MexA, MexB, and OprM were determined as above and compared to the parental strain. As transposon mutants in MexB were represented twice in this collection, the MIC was confirmed across both mutant strains.

[3] = tested on: folate metabolism in P. aeruginosa; test: Metabolomics (LC-MS metabolite abundance); type: cell-based; settings: PA14, 2×MIC for 15 min, vs solvent control; P=0.0186 and 0.0196
Protocol: Metabolite abundance was quantified in comparison to the solvent only control. Data represents mean±SD for 3 biological replicates. P values were calculated using unpaired t-test using Prism 9 (P values≤0.05)
To test the ability of fluorofolin to inhibit P. aeruginosa DHFR in vivo, metabolomics were performed. As a positive control for DHFR inhibition, we turned to TMP.
Overnight P. aeruginosa PA14 cultures were diluted 1:150 in Gutnick Minimal Media and grown to early-mid exponential phase (OD600=0.4-0.6).
LC-MS analysis of metabolites was performed on Orbitrap Exploris 240 mass spectrometer coupled with hydrophilic interaction liquid chromatography (HILIC)^64. […] Flow rate was 0.15 mL/min, and column temperature was set at 25° C. […] The orbitrap resolution was 180,000 at m/z of 200. The maximum injection time was 200 ms, and the automatic gain control (AGC) target was 1000%. Raw mass spectrometry data were converted to mzXML format by MSConvert (ProteoWizard). Pick-peaking was done on El Maven (v0.8.0, Elucidata).

P. aeruginosa PA14 = test: MIC in LB Broth; type: cell-based; settings: Pseudomonas aeruginosa; P. aeruginosa PA14, compound alone
Protocol: The minimum inhibitory concentration is defined as the lowest concentration of antibiotic at which no visible growth was detected after 16 hours at 37° C. Overnight cultures were diluted 1:150 in LB Broth and added to a 96-well plate. Antibiotics were serially diluted 1:2 and added to columns of the 96-well plate and grown at 37° C. with continuous shaking. Cell growth was measured by optical density (OD600). MIC assays were performed in either BioTek Synergy HT (Winooski, VT) or Tecan InfiniteM200 Pro (Männedorf, CH) microplate readers.

## O=C(O)c1cn(C2CC2)c2cc(N3CCNCC3)c(F)cc2c1=O [ciprofloxacin]
[1]
  resistance of nfxB T39P mutants: cross-resistant

## COc1cc(Cc2cnc(N)nc2N)cc(OC)c1OC [trimethoprim, reference compound]
[2]
  change of MIC in efflux pump mutants: large reductions in MIC
[3]
  abundance of AICAR and dUMP: significant upregulation
P. aeruginosa PA14
  MIC: 125 mg/L
